The values below come from US20240148821A1, “PHARMACEUTICAL USE OF CYCLIC PEPTIDE COMPOUND” (CHUGAI SEIYAKU KABUSHIKI KAISHA, priority 2021, published 2024).

Numbered stars: 1 amine (or outer) side, 2 acyl side, 3 side chain; on linkers, the order of the positions; unused ones are H or OH. Bridge positions count the residues as written; N and C are the ends. Square brackets hold non-standard residues; d marks the D form. Peptide text beside a SMILES is read from it. * marks the point of attachment. hPhe(3-Cl-4-CF3) = N[C@@H](CCc1ccc(C(F)(F)F)c(Cl)c1)C(=O)O; hPhe(3-F,4-CF3) = N[C@@H](CCc1ccc(C(F)(F)F)c(F)c1)C(=O)O; NMePhe(4-Cl) = CN[C@@H](Cc1ccc(Cl)cc1)C(=O)O; NMePhe(2-OMe) = CN[C@@H](Cc1ccccc1OC)C(=O)O; NMePhe(4-Me) = CN[C@@H](Cc1ccc(C)cc1)C(=O)O; NMedβ3hAla = C[C@H](CC(=O)[*:2])N(C)[*:1]; Phe(3-I) = N[C@@H](Cc1cccc(I)c1)C(=O)O; NMeAla(cPr) = CN[C@@H](CC1CC1)C(=O)O; NMeCha = CN[C@@H](CC1CCCCC1)C(=O)O; NMeChg = CN[C@H](C(=O)O)C1CCCCC1; hPhe = N[C@@H](CCc1ccccc1)C(=O)O; N(CH2CH2)2CF2 = FC1(F)CCN(*)CC1; NMeD = CN[C@@H](CC(=O)O)C(=O)O; NMeL = CN[C@@H](CC(C)C)C(=O)O; Chg = N[C@H](C(=O)O)C1CCCCC1; NMeV = CN[C@H](C(=O)O)C(C)C; d(β3hA) = C[C@@H](N)CC(=O)O; dIva = CC[C@@](C)(N)C(=O)O; NMeA = CN[C@@H](C)C(=O)O; NMeAib = CNC(C)(C)C(=O)O; Nle = CCCC[C@H](N)C(=O)O; Piperidide = C1CCN(*)CC1; Ac5c = NC1(C(=O)O)CCCC1; Ac4c = NC1(C(=O)O)CCC1; Ac3c = NC1(C(=O)O)CC1; Sar = CNCC(=O)O

In the assay the test system is Human pancreatic cancer cell line AsPC-1 (G12D mutation Kras). The experiment in a line: AsPC-1 cell growth inhibition (AsPC-1 CGI). It is filed as cell-based. To be noted: read-out: AsPC-1 cell growth inhibition, 50% growth inhibitory concentration (IC50 value); 96 hours, CellTiter-Glo, values classified in ranges. A general note: In ATP-based viability assays light output follows the ATP content of the culture.
Method: Test compounds were serially dilated with dimethyl sulfoxide, and 200 nL was then dispensed to a U-bottom 96-well plate using Labcyte Echo. […] The cell suspension was dispensed to a. plate containing a test compound at 100 μL per well and incubated at 37° C. in a 5% carbon dioxide gas incubator. 96 hours later, 80 μL of CellTiter-Glo (Promega) was added to each well and fluorescence was measured.
Turning to `CC[C@H](C)[C@@H]1NC(=O)[C@H](CC(C)C)N(C)C(=O)C[C@@H](C(=O)N2CCCCC2)N(C)C(=O)[C@H](CC(C)C)NC(=O)C(C)(C)N(C)C(=O)[C@H](Cc2ccc(OC)cc2)NC(=O)[C@H](Cc2cccc(I)c2)NC(=O)CN(C)C(=O)[C@H](Cc2ccc(C)cc2)N(C)C(=O)CN(C)C(=O)CN(C)C1=O` [Compound 247] ([NMeL]I[Sar][Sar][NMePhe(4-Me)][Sar][Phe(3-I)]Y(Me)[NMeAib]L[NMeD]-Piperidide; lactam N-11), the IC50 is > 500 nM. The figure for `CC[C@H](C)[C@@H]1NC(=O)[C@H](CC2CC2)N(C)C(=O)C[C@@H](C)NC(=O)[C@H](C(C)C)N(C)C(=O)C2(CCCC2)NC(=O)[C@@H]2CCCN2C(=O)[C@H](CCc2ccc(C(F)(F)F)c(Cl)c2)NC(=O)CN(C)C(=O)[C@H](CC2CCCCC2)N(C)C(=O)CN(C)C(=O)CN(C)C1=O` [Compound 248] (cyclo([Ac5c][NMeV][d(β3hA)][NMeAla(cPr)]I[Sar][Sar][NMeCha][Sar][hPhe(3-Cl-4-CF3)]P)) is > 500 nM; for `CC[C@H](C)[C@@H]1NC(=O)[C@H](CC(C)C)N(C)C(=O)C[C@@H](C(=O)N2CCCCC2)N(C)C(=O)[C@H](C(C)C)N(C)C(=O)C2(CCC2)NC(=O)[C@H](CC(=O)N2CCC(F)(F)CC2)N(C)C(=O)[C@H](CCc2ccc(C(F)(F)F)c(Cl)c2)NC(=O)CN(C)C(=O)[C@H](CC2CCCCC2)N(C)C(=O)CN(C)C(=O)CN(C)C1=O` [Compound 251] ([NMeL]I[Sar][Sar][NMeCha][Sar][hPhe(3-Cl-4-CF3)][NMeD](N(CH2CH2)2CF2)[Ac4c][NMeV][NMeD]-Piperidide; lactam N-11) it is > 500 nM; for `CCCC[C@@H]1NC(=O)[C@H](Cc2cccc(I)c2)NC(=O)CN(C)C(=O)[C@H](Cc2ccc(Cl)cc2)N(C)C(=O)CN(C)C(=O)CN(C)C(=O)[C@H]([C@@H](C)CC)NC(=O)[C@H](CC(C)C)N(C)C(=O)C[C@@H](C(=O)N2CCCCC2)N(C)C(=O)[C@H](CC(C)C)NC(=O)[C@H](Cc2ccccc2OC)N(C)C1=O` [Compound 259] ([NMeL]I[Sar][Sar][NMePhe(4-Cl)][Sar][Phe(3-I)][Nle][NMePhe(2-OMe)]L[NMeD]-Piperidide; lactam N-11) it is > 500 nM. The figure for `CC[C@H](C)[C@@H]1NC(=O)[C@H](CC(C)C)N(C)C(=O)C[C@@H](C(=O)N2CCCCC2)N(C)C(=O)[C@H](C(C)C)N(C)C(=O)C2(CCCC2)NC(=O)[C@@H]2CCCN2C(=O)[C@H](CCc2ccccc2)NC(=O)CN(C)C(=O)[C@H](CC2CCCCC2)N(C)C(=O)CN(C)C(=O)CN(C)C1=O` [Compound 265] ([NMeL]I[Sar][Sar][NMeCha][Sar][hPhe]P[Ac5c][NMeV][NMeD]-Piperidide; lactam N-11) is > 500 nM. As for `CC[C@H](C)[C@@H]1NC(=O)[C@H](C)N(C)C(=O)C[C@@H](C(=O)N2CCCCC2)N(C)C(=O)[C@H](C(C)C)N(C)C(=O)C2(CCCC2)NC(=O)[C@@H]2CCCN2C(=O)[C@H](CCc2ccc(C(F)(F)F)c(F)c2)NC(=O)CN(C)C(=O)[C@H](CC2CCCCC2)N(C)C(=O)CN(C)C(=O)CN(C)C1=O` [Compound 266] ([NMeA]I[Sar][Sar][NMeCha][Sar][hPhe(3-F,4-CF3)]P[Ac5c][NMeV][NMeD]-Piperidide; lactam N-11), the figure is > 500 nM; as for `CC[C@H](C)[C@@H]1NC(=O)[C@H](CC(C)C)N(C)C(=O)C[C@@H](C)N(C)C(=O)[C@H](C(C)C)N(C)C(=O)C2(CC2)NC(=O)[C@@H]2CCCN2C(=O)[C@H](CCc2ccc(C(F)(F)F)c(Cl)c2)NC(=O)CN(C)C(=O)[C@H](CC2CCCCC2)N(C)C(=O)CN(C)C(=O)CN(C)C1=O` [Compound 268] (cyclo([Ac3c][NMeV][NMedβ3hAla][NMeL]I[Sar][Sar][NMeCha][Sar][hPhe(3-Cl-4-CF3)]P)), > 500 nM.

Take `CC[C@H](C)[C@@H]1NC(=O)[C@H](CC(C)C)N(C)C(=O)C[C@@H](C)NC(=O)[C@H](C(C)C)N(C)C(=O)[C@@](C)(CC)NC(=O)[C@@H]2CCCN2C(=O)[C@H](CCc2ccc(C(F)(F)F)c(Cl)c2)NC(=O)CN(C)C(=O)[C@H](CC2CCCCC2)N(C)C(=O)CN(C)C(=O)CN(C)C1=O` [Compound 275] (cyclo(I[Sar][Sar][NMeCha][Sar][hPhe(3-Cl-4-CF3)]P[dIva][NMeV][d(β3hA)][NMeL])): the IC50 is > 500 nM. Regarding `CC[C@H](C)[C@@H]1NC(=O)[C@H](CC(C)C)N(C)C(=O)C[C@@H](C(=O)N2CCCCC2)N(C)C(=O)[C@H](C2CCCCC2)N(C)C(=O)C2(CCCC2)NC(=O)[C@@H](C)NC(=O)[C@H](CCc2ccc(C(F)(F)F)c(Cl)c2)NC(=O)CN(C)C(=O)[C@H](CC2CCCCC2)N(C)C(=O)CN(C)C(=O)CN(C)C1=O` [Compound 277] ([NMeL]I[Sar][Sar][NMeCha][Sar][hPhe(3-Cl-4-CF3)][dA][Ac5c][NMeChg][NMeD]-Piperidide; lactam N-11), the IC50 is > 500 nM.

As to `CC(C)C[C@H]1C(=O)N[C@@H](C2CCCCC2)C(=O)N(C)CC(=O)N(C)CC(=O)N(C)[C@@H](CC2CCCCC2)C(=O)N(C)CC(=O)N[C@@H](CCc2ccc(C(F)(F)F)c(Cl)c2)C(=O)N2CCC[C@H]2C(=O)NC2(CCCC2)C(=O)N(C)[C@@H](C(C)C)C(=O)N(C)[C@H](C(=O)N2CCCCC2)CC(=O)N1C` [Compound 281] ([NMeL][Chg][Sar][Sar][NMeCha][Sar][hPhe(3-Cl-4-CF3)]P[Ac5c][NMeV][NMeD]-Piperidide; lactam N-11), the IC50 is > 500 nM.
